Measured values from PMC6789782, “Safety Pharmacological Evaluation of the Coffee Component, Caffeoylquinic Acid, and Its Metabolites, Using Ex Vivo and In Vitro Profiling Assays” (Pharmaceuticals, 2019).
Like-named read-outs stand apart in the source and are kept apart here.

Assays:
rat hippocampal slices = assay: Electrophysiological assay of hippocampal slices, epileptiform discharge (ED) recording; conditions: ± SEM
Method: A hippocampal slice was placed on the multielectrode array (200 μm distant electrodes) to ensure the multi-electrode grid covered the major surface of the slice. […]
ED frequency (in Hz) was determined as follows: raw data were filtered with a Low Pass filter (Butterworth second order filter) set to 20 Hz. ED number was monitored on-line (epileptiform event amplitudes had to be higher than 15 μV to be counted; a dead time of 200 ms was applied for each epileptiform event detected). ED frequency was averaged using 30-s time intervals. Results are presented as mean frequency of ED for the last 2 min of each condition (± SEM).

5-HT2B = 5-HT2B (Homo sapiens, UniProt P41595); assay: In vitro profiling, binding assay
Method: (§1) Binding and functional assays of CGAs with the proteins known to be pharmacological targets related to the CVS, CNS, and GI functions were conducted. […] In the binding assay, we measured the radiation activity of the solution containing filtered proteins that bound to the tested compound or high-affinity ligand, while in the functional assays, we measured the reaction product. The ability of the test compound to interact with the tested targets was measured as the inhibition of ligand binding to the target or reaction product production (% inhibition).

[1] = molecular target: T1, Cholecystokinin CCK1 (CCKA) (Homo sapiens, UniProt P32238); assay: In vitro profiling, binding assay
T1 sequence (P32238 1-428): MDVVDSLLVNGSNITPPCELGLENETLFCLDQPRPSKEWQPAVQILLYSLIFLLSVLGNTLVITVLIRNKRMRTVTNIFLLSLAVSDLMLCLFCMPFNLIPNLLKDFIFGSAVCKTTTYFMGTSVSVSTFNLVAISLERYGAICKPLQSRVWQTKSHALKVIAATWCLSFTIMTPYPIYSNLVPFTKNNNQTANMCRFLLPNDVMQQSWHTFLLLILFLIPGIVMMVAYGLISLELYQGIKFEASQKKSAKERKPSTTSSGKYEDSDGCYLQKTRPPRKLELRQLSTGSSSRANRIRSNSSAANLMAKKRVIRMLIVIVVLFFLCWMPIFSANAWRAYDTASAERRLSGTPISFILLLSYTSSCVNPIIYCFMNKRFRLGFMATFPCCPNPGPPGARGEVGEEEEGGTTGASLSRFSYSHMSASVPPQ
Method: as §1

Adrenergic α1A = molecular target: T2, Adrenergic α1A (Rattus norvegicus, UniProt P43140); assay: In vitro profiling, binding assay
T2 sequence (P43140 1-466): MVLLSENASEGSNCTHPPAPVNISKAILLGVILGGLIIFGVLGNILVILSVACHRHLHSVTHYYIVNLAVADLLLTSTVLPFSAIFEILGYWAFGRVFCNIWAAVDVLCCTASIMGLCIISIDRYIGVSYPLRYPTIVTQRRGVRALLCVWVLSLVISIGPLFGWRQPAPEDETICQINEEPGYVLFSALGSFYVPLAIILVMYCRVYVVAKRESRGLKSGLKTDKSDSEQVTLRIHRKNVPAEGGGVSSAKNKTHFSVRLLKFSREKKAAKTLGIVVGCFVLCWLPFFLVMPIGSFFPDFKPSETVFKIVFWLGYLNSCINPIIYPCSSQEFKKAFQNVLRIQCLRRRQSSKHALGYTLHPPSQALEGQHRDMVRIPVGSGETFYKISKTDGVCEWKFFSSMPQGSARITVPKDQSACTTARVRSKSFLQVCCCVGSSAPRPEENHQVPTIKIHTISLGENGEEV
Method: as §1

5-HT2A = 5-HT2A (Homo sapiens, UniProt P28223); assay: In vitro profiling, binding assay
Method: as §1

Adenosine A2A = Adenosine A2A (Homo sapiens, UniProt P29274); assay: In vitro profiling, binding assay
Method: as §1

Histamine H1 = Histamine H1 (Homo sapiens, UniProt P35367); assay: In vitro profiling, binding assay
Method: as §1

Dopamine D1 = Dopamine D1 (Homo sapiens, UniProt P21728); assay: In vitro profiling, binding assay
Method: as §1

Vasopressin V1A = Vasopressin V1A (Homo sapiens, UniProt P37288); assay: In vitro profiling, binding assay
Method: as §1

Cannabinoid CB1 = Cannabinoid CB1 (Homo sapiens, UniProt P21554); assay: In vitro profiling, binding assay
Method: as §1

[2] = molecular target: Transporter, Norepinephrine (NET) (Homo sapiens, UniProt P23975); assay: In vitro profiling, binding assay
Method: as §1

Adrenergic β1 = Adrenergic β1 (Homo sapiens, UniProt P08588); assay: In vitro profiling, binding assay
Method: as §1

[3] = 10 µM compound, co-exposure with 50 μM 4-AP
[4] = 30 µM, 5-HT2B, read-out: % Inhibition
[5] = 30 µM, Cholecystokinin CCK1 (CCKA), read-out: % Inhibition
[6] = 30 µM, Adrenergic α1A, read-out: % Inhibition
[7] = 30 µM, Adenosine A2A, read-out: % Inhibition
[8] = 30 µM, Dopamine D1, read-out: % Inhibition
[9] = 30 µM, Vasopressin V1A, read-out: % Inhibition
[10] = 30 µM, Cannabinoid CB1, read-out: % Inhibition
[11] = 30 µM, Transporter, Norepinephrine (NET), read-out: % Inhibition
[12] = 30 µM, Adrenergic β1, read-out: % Inhibition

Cannabinoid CB1, sequence (P21554 whole entry): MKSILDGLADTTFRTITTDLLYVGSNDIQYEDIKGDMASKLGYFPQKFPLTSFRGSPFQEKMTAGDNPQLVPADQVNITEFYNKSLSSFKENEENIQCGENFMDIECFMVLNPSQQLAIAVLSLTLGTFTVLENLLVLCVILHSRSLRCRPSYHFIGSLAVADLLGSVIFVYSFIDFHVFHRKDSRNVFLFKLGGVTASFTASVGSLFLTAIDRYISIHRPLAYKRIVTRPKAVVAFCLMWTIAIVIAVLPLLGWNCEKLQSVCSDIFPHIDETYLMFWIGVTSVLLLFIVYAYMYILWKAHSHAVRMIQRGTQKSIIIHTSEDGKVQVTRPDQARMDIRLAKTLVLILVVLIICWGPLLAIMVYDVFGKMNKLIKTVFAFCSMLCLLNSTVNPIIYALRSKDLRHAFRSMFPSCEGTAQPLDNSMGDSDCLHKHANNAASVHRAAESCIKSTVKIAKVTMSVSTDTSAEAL
Histamine H1, sequence (P35367 whole entry): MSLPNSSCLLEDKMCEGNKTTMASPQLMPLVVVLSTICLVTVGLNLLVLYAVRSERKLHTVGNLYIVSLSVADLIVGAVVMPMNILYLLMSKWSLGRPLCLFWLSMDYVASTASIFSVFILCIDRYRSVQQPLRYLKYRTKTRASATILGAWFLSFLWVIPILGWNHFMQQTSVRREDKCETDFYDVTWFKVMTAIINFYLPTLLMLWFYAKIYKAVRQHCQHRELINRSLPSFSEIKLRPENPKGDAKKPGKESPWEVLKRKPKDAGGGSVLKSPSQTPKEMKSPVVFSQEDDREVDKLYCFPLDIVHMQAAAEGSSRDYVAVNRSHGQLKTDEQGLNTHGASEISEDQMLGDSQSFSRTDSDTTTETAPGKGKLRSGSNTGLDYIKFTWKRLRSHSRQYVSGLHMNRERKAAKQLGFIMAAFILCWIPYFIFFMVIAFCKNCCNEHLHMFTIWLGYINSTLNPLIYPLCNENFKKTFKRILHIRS
Vasopressin V1A, sequence (P37288 whole entry): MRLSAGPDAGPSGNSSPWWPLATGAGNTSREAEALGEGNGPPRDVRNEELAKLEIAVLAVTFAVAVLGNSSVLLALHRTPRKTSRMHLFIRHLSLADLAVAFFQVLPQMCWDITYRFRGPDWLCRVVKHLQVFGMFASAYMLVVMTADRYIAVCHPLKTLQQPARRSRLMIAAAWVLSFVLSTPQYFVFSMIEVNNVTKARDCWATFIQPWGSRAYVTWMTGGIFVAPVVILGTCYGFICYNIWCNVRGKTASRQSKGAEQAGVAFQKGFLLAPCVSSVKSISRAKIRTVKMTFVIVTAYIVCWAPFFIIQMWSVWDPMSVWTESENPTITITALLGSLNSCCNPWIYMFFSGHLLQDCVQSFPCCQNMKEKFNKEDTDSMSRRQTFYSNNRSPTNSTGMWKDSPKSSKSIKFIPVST
Adenosine A2A, sequence (P29274 whole entry): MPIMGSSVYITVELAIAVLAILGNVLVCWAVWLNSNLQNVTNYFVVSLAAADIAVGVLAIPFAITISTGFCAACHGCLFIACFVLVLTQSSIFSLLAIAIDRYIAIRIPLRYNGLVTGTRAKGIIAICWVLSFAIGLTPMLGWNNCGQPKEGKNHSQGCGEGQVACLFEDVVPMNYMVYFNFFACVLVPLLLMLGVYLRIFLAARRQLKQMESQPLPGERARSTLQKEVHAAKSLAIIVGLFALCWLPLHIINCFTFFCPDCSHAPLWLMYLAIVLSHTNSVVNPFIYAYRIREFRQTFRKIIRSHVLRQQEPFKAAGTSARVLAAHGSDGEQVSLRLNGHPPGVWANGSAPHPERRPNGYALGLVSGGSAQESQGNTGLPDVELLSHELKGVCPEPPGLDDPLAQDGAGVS
Adrenergic β1, sequence (P08588 whole entry): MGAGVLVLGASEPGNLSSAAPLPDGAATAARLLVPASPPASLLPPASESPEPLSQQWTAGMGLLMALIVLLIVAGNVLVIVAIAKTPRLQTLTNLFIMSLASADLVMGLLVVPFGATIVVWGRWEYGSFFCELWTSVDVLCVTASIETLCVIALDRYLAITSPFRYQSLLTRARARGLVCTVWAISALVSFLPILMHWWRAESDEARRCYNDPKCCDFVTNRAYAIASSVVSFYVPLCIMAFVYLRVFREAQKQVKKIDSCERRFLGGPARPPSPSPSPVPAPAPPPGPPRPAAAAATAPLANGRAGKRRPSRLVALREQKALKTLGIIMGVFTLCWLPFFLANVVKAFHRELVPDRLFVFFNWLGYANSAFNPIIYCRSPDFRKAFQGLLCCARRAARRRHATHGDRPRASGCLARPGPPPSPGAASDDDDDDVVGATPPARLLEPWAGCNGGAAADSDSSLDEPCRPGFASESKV
Dopamine D1, sequence (P21728 whole entry): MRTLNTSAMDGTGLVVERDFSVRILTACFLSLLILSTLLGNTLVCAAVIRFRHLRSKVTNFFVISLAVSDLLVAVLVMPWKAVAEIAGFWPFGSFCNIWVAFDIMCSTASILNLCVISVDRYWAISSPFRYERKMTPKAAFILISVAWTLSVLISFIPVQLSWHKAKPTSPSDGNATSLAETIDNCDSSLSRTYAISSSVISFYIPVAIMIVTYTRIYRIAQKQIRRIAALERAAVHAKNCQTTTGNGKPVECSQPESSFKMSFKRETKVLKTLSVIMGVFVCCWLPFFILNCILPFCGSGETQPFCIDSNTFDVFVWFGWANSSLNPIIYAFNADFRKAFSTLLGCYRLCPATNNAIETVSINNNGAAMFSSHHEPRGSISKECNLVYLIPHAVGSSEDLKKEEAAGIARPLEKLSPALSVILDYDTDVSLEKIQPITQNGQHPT
Transporter, Norepinephrine (NET), sequence (P23975 whole entry): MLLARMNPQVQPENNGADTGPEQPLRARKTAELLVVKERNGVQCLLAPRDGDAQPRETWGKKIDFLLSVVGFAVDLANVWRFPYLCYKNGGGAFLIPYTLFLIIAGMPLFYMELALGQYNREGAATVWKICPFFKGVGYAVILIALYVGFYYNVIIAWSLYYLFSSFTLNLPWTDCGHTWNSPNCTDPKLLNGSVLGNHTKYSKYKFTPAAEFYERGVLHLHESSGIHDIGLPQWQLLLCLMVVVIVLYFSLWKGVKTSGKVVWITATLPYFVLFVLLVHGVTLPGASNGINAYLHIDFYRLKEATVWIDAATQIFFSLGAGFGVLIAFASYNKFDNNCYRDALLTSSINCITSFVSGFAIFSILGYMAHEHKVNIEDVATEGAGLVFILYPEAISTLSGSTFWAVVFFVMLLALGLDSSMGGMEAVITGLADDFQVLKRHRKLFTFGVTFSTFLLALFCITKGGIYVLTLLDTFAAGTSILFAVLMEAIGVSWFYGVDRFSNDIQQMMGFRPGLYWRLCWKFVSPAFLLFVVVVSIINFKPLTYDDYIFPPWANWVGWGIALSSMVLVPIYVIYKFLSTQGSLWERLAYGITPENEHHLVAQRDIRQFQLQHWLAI
5-HT2B, sequence (P41595 whole entry): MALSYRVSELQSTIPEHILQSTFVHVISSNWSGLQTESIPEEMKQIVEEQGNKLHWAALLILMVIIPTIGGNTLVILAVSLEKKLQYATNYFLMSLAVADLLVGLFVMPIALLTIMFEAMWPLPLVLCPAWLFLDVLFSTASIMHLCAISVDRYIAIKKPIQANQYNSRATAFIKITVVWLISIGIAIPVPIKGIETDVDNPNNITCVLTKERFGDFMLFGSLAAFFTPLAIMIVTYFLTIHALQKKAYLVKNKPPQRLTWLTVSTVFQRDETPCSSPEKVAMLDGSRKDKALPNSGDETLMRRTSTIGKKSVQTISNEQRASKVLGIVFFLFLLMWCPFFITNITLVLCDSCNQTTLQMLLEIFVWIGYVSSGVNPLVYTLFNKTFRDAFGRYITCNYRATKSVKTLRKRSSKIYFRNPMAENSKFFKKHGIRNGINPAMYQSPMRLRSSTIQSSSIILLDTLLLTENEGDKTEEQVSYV
5-HT2A, sequence (P28223 whole entry): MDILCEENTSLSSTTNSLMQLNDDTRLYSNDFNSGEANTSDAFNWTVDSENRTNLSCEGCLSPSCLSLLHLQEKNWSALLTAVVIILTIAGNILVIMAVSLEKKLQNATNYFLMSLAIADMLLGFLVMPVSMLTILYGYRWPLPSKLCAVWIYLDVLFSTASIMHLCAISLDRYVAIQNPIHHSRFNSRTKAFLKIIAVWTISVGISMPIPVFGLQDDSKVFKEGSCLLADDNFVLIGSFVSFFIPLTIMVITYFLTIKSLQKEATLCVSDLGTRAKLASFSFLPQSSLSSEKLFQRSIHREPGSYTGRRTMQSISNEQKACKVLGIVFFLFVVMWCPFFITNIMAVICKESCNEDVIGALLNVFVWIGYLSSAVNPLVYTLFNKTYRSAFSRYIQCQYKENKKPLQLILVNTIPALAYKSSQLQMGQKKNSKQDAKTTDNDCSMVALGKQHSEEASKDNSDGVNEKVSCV

Row | Structure (SMILES) | ED rate (rat hippocampal slices; [3]) | inhibition at 30 µM (5-HT2A) | inhibition at 30 µM (5-HT2B; [4]) | inhibition at 30 µM [1, 5] | inhibition at 30 µM (Adrenergic α1A; [6]) | inhibition at 30 µM (Adenosine A2A; [7]) | inhibition at 30 µM (Histamine H1) | inhibition at 30 µM (Dopamine D1; [8]) | inhibition at 30 µM (Vasopressin V1A; [9]) | inhibition at 30 µM (Cannabinoid CB1; [10]) | inhibition at 30 µM [2, 11] | inhibition at 30 µM (Adrenergic β1; [12]) | also measured
1 | O=C(O)/C=C/c1ccc(O)c(O)c1 [CA, caffeic acid] | 0.55 ± 0.07 Hz | 7% | – | – | – | – | – | – | – | – | – | – | ED rate (rat hippocampal slices; follow-up test, 1 µM compound, co-exposure with 4-AP): 0.35 ± 0.03 Hz; % Inhibition (5-HT2B; 30 µM, 5-HT2B): 1%; % Inhibition ([1]; 30 µM, Cholecystokinin CCK1 (CCKA)): 12%; % Inhibition (Adrenergic α1A; 30 µM, Adrenergic α1A): 10%; % Inhibition (Adenosine A2A; 30 µM, Adenosine A2A): 4%; % Inhibition (Histamine H1; 30 µM): −11%; % Inhibition (Dopamine D1; 30 µM, Dopamine D1): 5%; % Inhibition (Vasopressin V1A; 30 µM, Vasopressin V1A): 9%; % Inhibition (Cannabinoid CB1; 30 µM, Cannabinoid CB1): −9%; % Inhibition ([2]; 30 µM, Transporter, Norepinephrine (NET)): 0%; % Inhibition (Adrenergic β1; 30 µM, Adrenergic β1): 3%
2 | COc1cc(/C=C/C(=O)O[C@H]2C[C@@](O)(C(=O)O)C[C@H](O)[C@@H]2O)ccc1O [5-FQA, 5-O-feruloylquinic acid] | 0.46 ± 0.05 Hz | 8% | -5% | 7% | 10% | 2% | -22% | 22% | 16% | -6% | -1% | -4% | –
3 | O=C(/C=C/c1ccc(O)c(O)c1)O[C@H]1C[C@@](O)(C(=O)O)C[C@H](O)[C@@H]1O [5-CQA, 5-O-caffeoylquinic acid] | 0.38 ± 0.04 Hz | 3% | -16% | 10% | 14% | -7% | -12% | 7% | 0% | -6% | -3% | -1% | –
4 | COc1cc(/C=C/C(=O)O)ccc1O [FA, ferulic acid] | 0.41 ± 0.04 Hz | – | – | – | – | – | – | – | – | – | – | – | inhibition at 30 µM (5-HT2B): 5%; inhibition at 30 µM [1]: 1%; inhibition at 30 µM (Adrenergic α1A): -2%; inhibition at 30 µM (Adenosine A2A): -14%; inhibition at 30 µM (Dopamine D1): -1%; inhibition at 30 µM (Vasopressin V1A): 6%; inhibition at 30 µM (Cannabinoid CB1): -15%; inhibition at 30 µM [2]: 2%; inhibition at 30 µM (Adrenergic β1): -2%
